Broadly, the IC50 is the midpoint of a concentration-inhibition curve.

The subject of test [1] is primary human total T-cells. In words: Primary human total T-cell activation: IL-2 secretion, Biological Example 2. The class given is cell-based. To be noted: 48 hours, fold change over baseline; for fold induction at 0.3 µM: inhibitor 0.3 μM; for fold induction at 1 µM: inhibitor 1 μM; for fold induction at 3 µM: inhibitor 3 μM.
Test [2] concerns primary human total T-cells. In words: Primary human total T-cell activation: CD25 surface staining, Biological Example 2. Format: cell-based. To be noted: 48 hours, fold change over baseline; for fold induction at 0.3 µM: inhibitor 0.3 μM; for fold induction at 1 µM: inhibitor 1 μM; for fold induction at 3 µM: inhibitor 3 μM.
Test [3] has as its target Cbl-b (Homo sapiens (Human), UniProt Q13191). In words: Cbl-b displacement assay (Cbl-b inhibition assay), TR-FRET probe displacement, Biological Example 1. Format: binding. The method in brief:
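N-terminally Avitagged, biotinylated truncated Cbl-b (0.5 nM "High" or 0.125 nM "Low", final) pre-incubated 1 h at room temperature with compound (1% DMSO) in HEPES pH 7.5 buffer. Then 150 nM BODIPY FL probe (~EC40) plus 2 nM streptavidin-terbium for 1 h; TR-FRET read at 520/620 nm.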

The mark [4] stands for this setting: anti-CD3/anti-CD28 co-stimulation.
Where [5] appears, read: anti-CD3/anti-CD28 co-stimulation, read-out: IL-2 secretion CD3/CD28 1 μM.
[6] abbreviates: anti-CD3 alone, read-out: IL-2 secretion CD3 1 μM.
Where [7] appears, read: anti-CD3/anti-CD28 co-stimulation, read-out: CD25 staining CD3/CD28 1 μM.
The mark [8] stands for this setting: anti-CD3 alone, read-out: CD25 staining CD3 1 μM.
Setting [9] is: 0.5 nM Cbl-b final concentration (High), read-out: Cbl-b activity IC50 (High).
Setting [10] is: 0.125 nM Cbl-b final concentration (Low), read-out: Cbl-b activity IC50 (Low).
Setting [11] is: Cbl-b concentration (High or Low) not given, read-out: IC50 values in the Cbl-b inhibition assay of Biological Example 1.

Like-named read-outs stand apart in the source and are kept apart here.

Sequence of Cbl-b (Q13191 36-427): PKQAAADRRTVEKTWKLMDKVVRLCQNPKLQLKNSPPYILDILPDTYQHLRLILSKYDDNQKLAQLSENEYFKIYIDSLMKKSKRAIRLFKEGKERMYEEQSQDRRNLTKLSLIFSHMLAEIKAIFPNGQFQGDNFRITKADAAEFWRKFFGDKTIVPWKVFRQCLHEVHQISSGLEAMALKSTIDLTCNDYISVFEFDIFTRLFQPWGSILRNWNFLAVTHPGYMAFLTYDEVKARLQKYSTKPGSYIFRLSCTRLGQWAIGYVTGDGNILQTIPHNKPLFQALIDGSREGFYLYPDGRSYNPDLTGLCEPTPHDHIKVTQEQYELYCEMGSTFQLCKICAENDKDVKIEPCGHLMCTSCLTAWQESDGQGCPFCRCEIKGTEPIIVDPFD

For the molecule `Cn1cnnc1CC1(c2cccc(N3Cc4c(cc(CN5CCCC6(CC6)C5)cc4C(F)(F)F)C3=O)c2)COC1` [Compound 7, 6-((5-azaspiro[2.5]octan-5-yl)methyl)-2-(3-(3-((4-methyl-4H-1,2,4-triazol-3-yl)methyl)oxetan-3-yl)phenyl)-4-(trifluoromethyl)isoindolin-1-one], the fold induction at 0.3 µM in test [1] (setting [4]) was 11 to 15; in test [2] (setting [4]), greater than 1.39. Also, the fold induction at 1 µM in test [1] (setting [5]) is 11 to 15; in test [1] (setting [6]), less than 0.33; in test [2] (setting [7]) it was greater than 1.39; in test [2] (setting [8]), greater than 1.14. Moreover, the fold induction at 3 µM in test [1] (anti-CD3 alone) is 0.34 to 0.66; in test [2] (anti-CD3 alone) it was greater than 1.14. The concentration for half-maximal inhibition (IC50) in test [3] (setting [9]) is 5.1 to 100 nM.

For `Cn1cnnc1CC1(c2cccc(N3Cc4c(cc(CN5CCC[C@H](C#N)C5)cc4C(F)(F)F)C3=O)c2)COC1` [Compound 18, (S)-1-((2-(3-(3-((4-methyl-4H-1,2,4-triazol-3-yl)methyl)oxetan-3-yl)phenyl)-3-oxo-7-(trifluoromethyl)isoindolin-5-yl)methyl)piperidine-3-carbonitrile], the fold induction at 0.3 µM in test [1] (setting [4]) is less than 10; in test [2] (setting [4]), 1.25 to 1.39. The fold induction at 1 µM in test [1] (setting [5]) is 11 to 15; in test [1] (setting [6]) it was less than 0.33; in test [2] (setting [7]) it was 1.25 to 1.39; in test [2] (setting [8]) it was greater than 1.14. The fold induction at 3 µM was 0.34 to 0.66 in test [1] (anti-CD3 alone) and greater than 1.14 in test [2] (anti-CD3 alone). Further, in test [3] (setting [10]), the IC50 was 1 to 5 nM.

Take `Cn1cnnc1CC1(c2cccc(N3Cc4c(cc(CN5CCC(F)(F)[C@@H](CO)C5)cc4C(F)(F)F)C3=O)c2)COC1` [Compound 16, (R)-6-((4,4-difluoro-3-(hydroxymethyl)piperidin-1-yl)methyl)-2-(3-(3-((4-methyl-4H-1,2,4-triazol-3-yl)methyl)oxetan-3-yl)phenyl)-4-(trifluoromethyl)isoindolin-1-one]: the fold induction at 0.3 µM was less than 10 in test [1] (setting [4]) and less than 1.24 in test [2] (setting [4]). The fold induction at 1 µM in test [1] (setting [5]) was less than 10; in test [1] (setting [6]), less than 0.33; in test [2] (setting [7]), less than 1.24; in test [2] (setting [8]) it was less than 1.04. Moreover, the fold induction at 3 µM in test [1] (anti-CD3 alone) is less than 0.33; in test [2] (anti-CD3 alone) it was 1.05 to 1.14. Further, in test [3] (setting [9]), the IC50 was in the range of 1 to 5 nM.

`C[C@H](c1cc2c(c(C3CC3)n1)CN(c1cccc(C3(Cc4nncn4C)COC3)c1)C2=O)N1CCC(F)(F)[C@H](C)C1` [Compound 50, 4-cyclopropyl-6-((R)-1-((R)-4,4-difluoro-3-methylpiperidin-1-yl)ethyl)-2-(3-(3-((4-methyl-4H-1,2,4-triazol-3-yl)methyl)oxetan-3-yl)phenyl)-2,3-dihydro-1H-pyrrolo[3,4-c]pyridin-1-one]: the fold induction at 0.3 µM was greater than 15 in test [1] (setting [4]) and greater than 1.39 in test [2] (setting [4]). The fold induction at 1 µM in test [1] (setting [5]) was greater than 15; in test [1] (setting [6]), greater than 0.66; in test [2] (setting [7]), greater than 1.39; in test [2] (setting [8]), greater than 1.14. The fold induction at 3 µM in test [1] (anti-CD3 alone) is greater than 0.66; in test [2] (anti-CD3 alone) it was greater than 1.14. Also, the IC50 in test [3] (setting [10]) was less than 1 nM.

For `CCNc1cc(C2(Cc3nncn3C)COC2)cc(N2Cc3c(cc(CN4CCC[C@H](C)C4)nc3C3CC3)C2=O)n1` [Compound 43, 4-cyclopropyl-2-[6-(ethylamino)-4-{3-[(4-methyl-1,2,4-triazol-3-yl)methyl]oxetan-3-yl}pyridin-2-yl]-6-{[(3S)-3-methylpiperidin-1-yl]methyl}-3H-pyrrolo[3,4-c]pyridin-1-one], the fold induction at 0.3 µM in test [1] (setting [4]) was greater than 15; in test [2] (setting [4]), greater than 1.39. Further, the fold induction at 1 µM is greater than 15 in test [1] (setting [5]), greater than 0.66 in test [1] (setting [6]), greater than 1.39 in test [2] (setting [7]) and greater than 1.14 in test [2] (setting [8]). Moreover, the fold induction at 3 µM in test [1] (anti-CD3 alone) is greater than 0.66; in test [2] (anti-CD3 alone), greater than 1.14. Besides, the IC50 in test [3] (setting [10]) fell in the range of 1 to 5 nM.

On to `C[C@H]1CCCN(Cc2cc3c(c(C(F)(F)F)c2)CN(c2cc(C4(Cc5nncn5C)COC4)ccn2)C3=O)C1` [Compound 48, (S)-2-(4-(3-((4-methyl-4H-1,2,4-triazol-3-yl)methyl)oxetan-3-yl)pyridin-2-yl)-6-((3-methylpiperidin-1-yl)methyl)-4-(trifluoromethyl)isoindolin-1-one], for which the results for the fold induction at 0.3 µM in test [1] (setting [4]) and in test [2] (setting [4]) were greater than 15 and greater than 1.39, respectively. In addition, the fold induction at 1 µM in test [1] (setting [5]) was greater than 15; in test [1] (setting [6]) it was greater than 0.66; in test [2] (setting [7]), greater than 1.39; in test [2] (setting [8]), greater than 1.14. Moreover, the fold induction at 3 µM in test [1] (anti-CD3 alone) is greater than 0.66; in test [2] (anti-CD3 alone), greater than 1.14. In addition, the IC50 in test [3] (setting [10]) and in test [3] (setting [11]) was 1 to 5 nM each time.

For `C[C@@H]1CN(Cc2cc3c(c(C(F)(F)F)c2)CN(c2cccc(C4(Cc5nncn5C)COC4)c2)C3=O)C[C@H](C)C1(F)F` [Compound 17, 6-(((cis)-4,4-difluoro-3,5-dimethylpiperidin-1-yl)methyl)-2-(3-(3-((4-methyl-4H-1,2,4-triazol-3-yl)methyl)oxetan-3-yl)phenyl)-4-(trifluoromethyl)isoindolin-1-one], the fold induction at 0.3 µM is 11 to 15 in test [1] (setting [4]) and greater than 1.39 in test [2] (setting [4]). Also, the fold induction at 1 µM in test [1] (setting [5]) is greater than 15; in test [1] (setting [6]), greater than 0.66; in test [2] (setting [7]) it was 1.25 to 1.39; in test [2] (setting [8]), greater than 1.14. For the same molecule, the fold induction at 3 µM in test [1] (anti-CD3 alone) is greater than 0.66; in test [2] (anti-CD3 alone) it was greater than 1.14. The IC50 in test [3] (setting [9]) lay within 1 to 5 nM.

With `CCOc1cc(C2(Cc3nncn3C)COC2)cc(N2Cc3c(cc(CN4CCC[C@H](C)C4)nc3C3CC3)C2=O)n1` [Compound 40, 4-cyclopropyl-2-(6-ethoxy-4-{3-[(4-methyl-1,2,4-triazol-3-yl)methyl]oxetan-3-yl}pyridin-2-yl)-6-{[(3S)-3-methylpiperidin-1-yl]methyl}-3H-pyrrolo[3,4-c]pyridin-1-one], the results for the fold induction at 0.3 µM in test [1] (setting [4]) and in test [2] (setting [4]) were greater than 15 and greater than 1.39, respectively. Moreover, the fold induction at 1 µM in test [1] (setting [5]) was greater than 15; in test [1] (setting [6]) it was greater than 0.66; in test [2] (setting [7]), greater than 1.39; in test [2] (setting [8]) it was greater than 1.14. The fold induction at 3 µM in test [1] (anti-CD3 alone) is greater than 0.66; in test [2] (anti-CD3 alone) it was greater than 1.14. Further, the half-maximal inhibitory concentration (IC50) in test [3] (setting [10]) and in test [3] (setting [11]) was less than 1 nM each time.

Turning to `C[C@H]1CCCN(Cc2cc3c(c(C4CC4)n2)CN(c2cccc(C4(Cc5nncn5C)COC4)c2)C3=O)C1` [Compound 35, (S)-4-Cyclopropyl-2-(3-(3-((4-methyl-4H-1,2,4-triazol-3-yl)methyl)oxetan-3-yl)phenyl)-6-((3-methylpiperidin-1-yl)methyl)-2,3-dihydro-1H-pyrrolo[3,4-c]pyridin-1-one], the fold induction at 0.3 µM in test [1] (setting [4]) was 11 to 15; in test [2] (setting [4]), less than 1.24. Besides, the fold induction at 1 µM in test [1] (setting [5]) is greater than 15; in test [1] (setting [6]), 0.34 to 0.66; in test [2] (setting [7]) it was 1.25 to 1.39; in test [2] (setting [8]), 1.05 to 1.14. The fold induction at 3 µM in test [1] (anti-CD3 alone) was greater than 0.66; in test [2] (anti-CD3 alone), greater than 1.14. Besides, in test [3] (setting [10]), the IC50 lay within 1 to 5 nM.

In the case of `Cn1cnnc1CC1(c2cccc(N3Cc4c(cc(CN5CCC(F)(F)[C@@H](C#N)C5)cc4C(F)(F)F)C3=O)c2)COC1` [Compound 10, (R)-4,4-difluoro-1-((2-(3-(3-((4-methyl-4H-1,2,4-triazol-3-yl)methyl)oxetan-3-yl)phenyl)-3-oxo-7-(trifluoromethyl)isoindolin-5-yl)methyl)piperidine-3-carbonitrile], the results for the fold induction at 0.3 µM in test [1] (setting [4]) and in test [2] (setting [4]) were 11 to 15 and 1.25 to 1.39, respectively. For the same molecule, the fold induction at 1 µM in test [1] (setting [5]) is 11 to 15; in test [1] (setting [6]), less than 0.33; in test [2] (setting [7]), 1.25 to 1.39; in test [2] (setting [8]), 1.05 to 1.14. Also, the figures for the fold induction at 3 µM in test [1] (anti-CD3 alone) and in test [2] (anti-CD3 alone) were less than 0.33 and 1.05 to 1.14, respectively. Also, the IC50 in test [3] (setting [9]) and in test [3] (setting [11]) was less than 1 nM in each case.

As to `CCOc1cc(C2(Cc3nncn3C)COC2)cc(N2Cc3c(cc(CN4CCC(F)(F)[C@H](C)C4)nc3C3CC3)C2=O)n1` [Compound 41, 4-cyclopropyl-6-{[(3R)-4,4-difluoro-3-methylpiperidin-1-yl]methyl}-2-(6-ethoxy-4-{3-[(4-methyl-1,2,4-triazol-3-yl)methyl]oxetan-3-yl}pyridin-2-yl)-3H-pyrrolo[3,4-c]pyridin-1-one], the fold induction at 0.3 µM in test [1] (setting [4]) was greater than 15; in test [2] (setting [4]) it was greater than 1.39. Also, the fold induction at 1 µM in test [1] (setting [5]) is greater than 15; in test [1] (setting [6]) it was greater than 0.66; in test [2] (setting [7]), greater than 1.39; in test [2] (setting [8]), greater than 1.14. For the same molecule, the fold induction at 3 µM was greater than 0.66 in test [1] (anti-CD3 alone) and greater than 1.14 in test [2] (anti-CD3 alone). Further, the half-maximal inhibitory concentration (IC50) in test [3] (setting [10]) is 1 to 5 nM.

The record behind these values is patent US11464802B2, “3-substituted piperidine compounds for Cbl-b inhibition, and use thereof” (Nurix Therapeutics, Inc., priority 2019, dated 2022).
